This passage reports IC50 and inhibition results from ChEMBL document CHEMBL2311454, “Discovery and evaluation of novel inhibitors of mycobacterium protein tyrosine phosphatase B from the 6-Hydroxy-benzofuran-5-carboxylic acid scaffold” (J Med Chem, 2013).

Activity calls are given as the source filed them. No cut-off for these calls is given here. Some results are limits rather than exact numbers.

Assay [1] has as its target T1, Receptor-type tyrosine-protein phosphatase C (Homo sapiens, UniProt P08575).
T1 sequence (P08575 whole entry): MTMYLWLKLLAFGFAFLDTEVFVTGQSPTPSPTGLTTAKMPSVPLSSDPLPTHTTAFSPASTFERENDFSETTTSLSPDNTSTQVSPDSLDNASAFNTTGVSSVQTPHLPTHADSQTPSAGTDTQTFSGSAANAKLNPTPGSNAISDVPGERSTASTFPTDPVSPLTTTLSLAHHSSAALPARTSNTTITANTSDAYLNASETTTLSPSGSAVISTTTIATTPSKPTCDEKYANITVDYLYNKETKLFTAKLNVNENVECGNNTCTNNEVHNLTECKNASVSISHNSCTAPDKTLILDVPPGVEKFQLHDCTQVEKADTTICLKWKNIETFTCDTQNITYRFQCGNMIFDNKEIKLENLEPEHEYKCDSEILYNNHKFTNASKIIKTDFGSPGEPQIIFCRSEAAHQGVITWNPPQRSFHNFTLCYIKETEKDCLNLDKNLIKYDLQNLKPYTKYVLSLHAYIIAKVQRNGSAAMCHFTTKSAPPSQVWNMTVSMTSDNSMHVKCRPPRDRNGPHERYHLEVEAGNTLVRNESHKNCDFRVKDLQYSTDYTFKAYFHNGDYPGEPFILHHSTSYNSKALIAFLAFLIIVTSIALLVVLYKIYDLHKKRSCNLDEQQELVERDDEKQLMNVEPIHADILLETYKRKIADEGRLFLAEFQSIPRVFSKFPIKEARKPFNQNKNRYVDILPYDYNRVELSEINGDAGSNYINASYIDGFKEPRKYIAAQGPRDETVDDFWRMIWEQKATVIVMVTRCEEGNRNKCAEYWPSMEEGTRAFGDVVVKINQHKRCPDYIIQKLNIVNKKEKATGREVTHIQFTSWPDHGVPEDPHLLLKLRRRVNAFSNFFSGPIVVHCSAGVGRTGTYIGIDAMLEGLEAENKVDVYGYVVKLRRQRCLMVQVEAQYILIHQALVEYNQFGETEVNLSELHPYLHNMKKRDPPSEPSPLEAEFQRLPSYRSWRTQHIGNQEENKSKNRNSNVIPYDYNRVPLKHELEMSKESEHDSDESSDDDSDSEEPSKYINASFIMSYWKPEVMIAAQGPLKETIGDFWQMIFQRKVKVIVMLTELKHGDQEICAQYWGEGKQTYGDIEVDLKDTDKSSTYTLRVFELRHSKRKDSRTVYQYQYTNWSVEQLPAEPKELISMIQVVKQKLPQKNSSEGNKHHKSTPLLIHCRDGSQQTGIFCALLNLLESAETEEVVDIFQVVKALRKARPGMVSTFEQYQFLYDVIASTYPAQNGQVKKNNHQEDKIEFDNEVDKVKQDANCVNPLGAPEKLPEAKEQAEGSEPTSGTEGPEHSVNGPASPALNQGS
Nature of the assay: Inhibition of CD45 (unknown origin) expressed in Escherichia coli using pNPP substrate after 5 mins by spectrophotometric analysis.

Assay [2] has as its target T2, Tyrosine-protein phosphatase non-receptor type 9 (Homo sapiens, UniProt P43378).
T2 sequence (P43378 whole entry): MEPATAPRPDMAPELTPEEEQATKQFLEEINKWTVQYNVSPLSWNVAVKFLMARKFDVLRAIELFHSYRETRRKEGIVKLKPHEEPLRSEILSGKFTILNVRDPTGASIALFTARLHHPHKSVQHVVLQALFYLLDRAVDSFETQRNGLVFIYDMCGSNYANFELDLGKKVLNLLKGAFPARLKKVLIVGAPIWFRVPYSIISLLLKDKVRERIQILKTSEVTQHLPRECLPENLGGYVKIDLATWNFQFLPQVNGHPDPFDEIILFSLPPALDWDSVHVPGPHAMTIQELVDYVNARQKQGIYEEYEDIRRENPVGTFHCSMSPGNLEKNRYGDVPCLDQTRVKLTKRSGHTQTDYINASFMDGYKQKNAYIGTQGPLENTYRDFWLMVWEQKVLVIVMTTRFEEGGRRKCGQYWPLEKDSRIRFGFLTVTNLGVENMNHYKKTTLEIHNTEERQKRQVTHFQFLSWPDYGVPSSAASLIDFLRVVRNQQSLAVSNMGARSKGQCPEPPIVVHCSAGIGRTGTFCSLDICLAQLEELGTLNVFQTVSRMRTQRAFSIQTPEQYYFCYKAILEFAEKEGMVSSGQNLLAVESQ
The experiment in a line: Inhibition of PTPMEG2 (unknown origin) expressed in Escherichia coli using pNPP substrate after 5 mins by spectrophotometric analysis.

The target in assay [3] is T3, Tyrosine-protein phosphatase non-receptor type 11 (Homo sapiens, UniProt Q06124).
T3 sequence (Q06124 whole entry): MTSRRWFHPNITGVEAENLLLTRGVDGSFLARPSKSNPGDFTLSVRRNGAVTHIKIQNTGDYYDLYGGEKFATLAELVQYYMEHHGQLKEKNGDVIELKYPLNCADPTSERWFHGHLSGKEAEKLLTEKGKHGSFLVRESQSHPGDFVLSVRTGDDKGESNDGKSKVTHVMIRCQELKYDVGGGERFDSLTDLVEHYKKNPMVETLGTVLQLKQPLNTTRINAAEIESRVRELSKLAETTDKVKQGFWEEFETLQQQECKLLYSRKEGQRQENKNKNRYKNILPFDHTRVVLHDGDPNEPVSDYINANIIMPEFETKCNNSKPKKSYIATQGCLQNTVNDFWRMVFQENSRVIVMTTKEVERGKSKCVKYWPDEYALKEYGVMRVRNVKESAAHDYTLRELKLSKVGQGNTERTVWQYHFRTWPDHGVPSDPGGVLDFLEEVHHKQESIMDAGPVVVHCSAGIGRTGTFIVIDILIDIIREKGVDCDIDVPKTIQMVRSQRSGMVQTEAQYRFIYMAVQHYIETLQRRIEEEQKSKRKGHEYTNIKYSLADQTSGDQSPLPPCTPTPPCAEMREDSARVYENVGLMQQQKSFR
The experiment in a line: Inhibition of SHP2 (unknown origin) expressed in Escherichia coli using pNPP substrate after 5 mins by spectrophotometric analysis.

Assay [4] in a line: Inhibition of Mycobacterium tuberculosis PTPB expressed in Escherichia coli using pNPP substrate after 5 mins by spectrophotometric analysis.
In assay [5] the target is Tyrosine-protein phosphatase non-receptor type 6 (Homo sapiens, UniProt P29350). The experiment in a line: Inhibition of SHP1 (unknown origin) expressed in Escherichia coli using pNPP substrate after 5 mins by spectrophotometric analysis.
In assay [6] the test system is RAW264.7. The experiment in a line: Inhibition of Mycobacterium tuberculosis PTPB expressed in mouse RAW264.7 macrophages assessed as decrease in Akt activity after 1 hr by Western blotting analysis. It counts as cell-based.
Assay [7] concerns Mycobacterium tuberculosis. Nature of the assay: Inhibition of Mycobacterium tuberculosis PTPB expressed in mouse RAW264.7 macrophages assessed as restoration of IFNgamma-induced p38 activation after 1 hr by Western blotting analysis. Background: In western blotting, separated proteins are transferred to a membrane and probed.
In assay [8] the test system is RAW264.7. Nature of the assay: Inhibition of Mycobacterium tuberculosis PTPB expressed in mouse RAW264.7 macrophages assessed as increase in caspase activity after 1 hr by spectrophotometric analysis. It is filed as cell-based.
The test system of assay [9] is RAW264.7. The experiment in a line: Inhibition of Mycobacterium tuberculosis PTPB expressed in mouse RAW264.7 macrophages assessed as induction of apoptosis after 1 hr by annexin V-FITC /propidium iodide staining-based flow cytometric analysis. It counts as cell-based. (A flow cytometer gives signals particle by particle.)

Sequence of Tyrosine-protein phosphatase non-receptor type 6 (P29350 whole entry): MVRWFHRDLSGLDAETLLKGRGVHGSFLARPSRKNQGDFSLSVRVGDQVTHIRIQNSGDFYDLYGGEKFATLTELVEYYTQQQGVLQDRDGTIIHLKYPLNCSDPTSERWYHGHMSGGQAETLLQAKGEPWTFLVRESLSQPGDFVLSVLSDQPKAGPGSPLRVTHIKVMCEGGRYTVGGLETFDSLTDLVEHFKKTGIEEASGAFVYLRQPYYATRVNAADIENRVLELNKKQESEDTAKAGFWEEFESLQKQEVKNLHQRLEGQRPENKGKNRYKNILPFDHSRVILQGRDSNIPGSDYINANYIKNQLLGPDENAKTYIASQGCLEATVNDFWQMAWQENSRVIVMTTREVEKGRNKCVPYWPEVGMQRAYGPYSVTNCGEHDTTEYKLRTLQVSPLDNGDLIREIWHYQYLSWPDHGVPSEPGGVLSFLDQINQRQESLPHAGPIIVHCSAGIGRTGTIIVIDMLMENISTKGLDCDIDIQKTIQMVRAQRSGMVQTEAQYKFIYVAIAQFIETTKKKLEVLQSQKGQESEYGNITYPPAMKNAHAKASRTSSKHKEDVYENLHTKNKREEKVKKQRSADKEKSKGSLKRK

For orientation: IC50 means the point on the concentration scale where inhibition reaches its midpoint. High values mean a need for much substance, low ones inhibition by little substance. Regarding `O=C(O)c1cc2c(C#CCO)c(-c3ccccc3)oc2cc1O`, the IC50 in assay [1] is greater than 100 µM; in [2], greater than 100 µM; in assay [3], greater than 100 µM; in assay [4] it was 22 µM; in [5] it was greater than 100 µM.

Consider `O=C(O)c1cc2c(CCc3cccc(C(F)(F)F)c3)c(-c3ccccc3)oc2cc1O`, for which the IC50 is 10.1 µM in assay [1], 8.6 µM in assay [2] and 4.5 µM in assay [3].

In the case of `O=C(O)c1cc2c(CCc3ccc(OC(F)(F)F)cc3)c(-c3ccccc3)oc2cc1O`, the IC50 stood at 18.9 µM in assay [1], 8.4 µM in assay [2], 3.4 µM in [4] and 7.1 µM in assay [5]. Moreover, the inhibition entry (in the assay on RAW264.7 [6]; in assay [7]; in the assay with RAW264.7 [8]; with RAW264.7 [9]) was “inactive” each time.

Consider `C[C@]12CCC(=O)C=C1CC[C@@H]1[C@@H]2CC[C@@]2(C)[C@H]1CC[C@]2(O)C#Cc1c(-c2ccccc2)oc2cc(O)c(C(=O)O)cc12`, for which the IC50 in assay [1] was greater than 100 µM; in assay [2] it was greater than 100 µM; in assay [3], 30 µM; in [4], 5.09 µM; in assay [5] it was greater than 100 µM.

On to `O=C(O)c1cc2c(/C=C\c3cc(F)cc(F)c3)c(-c3ccccc3)oc2cc1O`, for which the IC50 in assay [1] was found to be 13.1 µM; in [2], 9.2 µM; in assay [3] it was 5 µM; in assay [4], 1.2 µM.

For `O=C(O)c1cc2c(CCc3ccc(Oc4ccccc4)cc3)c(-c3ccccc3)oc2cc1O`, the IC50 in assay [1] is 14.2 µM; in assay [2], 7.7 µM; in assay [3], 3.6 µM; in assay [5], 3.7 µM.

For `C#Cc1c(-c2ccccc2)oc2cc(O)c(C(=O)O)cc12`, the IC50 in [1] was 80 µM; in assay [2], 85 µM; in assay [3] it was 31 µM; in assay [5], greater than 50 µM.

Take `O=C(O)c1cc2c(CCc3cccc(F)c3)c(-c3ccccc3)oc2cc1O`: the IC50 was found to be 120 µM in assay [1], 110 µM in [2], 10.9 µM in assay [3] and 11.5 µM in [5].
